Reference: patent US7749984B2, “Computer-based model for identification and characterization of non-competitive inhibitors of nicotinic acetylcholine receptors and related ligand-gated ion channel receptors” (priority 2003, dated 2010)
Like-named read-outs stand apart in the source and are kept apart here.

What was measured:
[1] = biological target: T1, α3β4 nAChR (Rattus norvegicus, UniProt P04757+P12392); assay: Nicotine-stimulated 86Rb+ efflux assay, KXα3β4R2 cell line; assay type: cell-based; design: host or cells: HEK293 (KXα3β4R2)
Procedure: After the prediction has been done based on clustering the actual values of IC50 were determined using the nicotine-stimulated ^86Rb^+ efflux assay on cell line KXα3β4R2.

[2] = biological target: T1, α3β4 nAChR; assay: biochemical; assay type: binding; design: host or cells: HEK293 (KXα3β4R2); conditions: for K′: chromatographic (NLC and van't Hoff); for ΔG° / ΔH° / ΔS°: chromatographic (van't Hoff)
[3] = biological target: K177 (α4β2) (Homo sapiens, UniProt P17787+P43681); assay: Rb+ efflux assay, K177 cells
[4] = system: nAChR, SH-SY5Y cells; assay: Rb+ efflux assay, SH-SY5Y cells; assay type: cell-based, human; conditions: cell line SH-SY5Y
[5] = biological target: T1, α3β4 nAChR; conditions: nicotine concentration of ~300 μM or higher; cited from earlier work
[6] = system: nAChR, PC-12 cells; assay: Rb+ efflux assay, PC-12 cells; assay type: cell-based, rat; conditions: cell line PC-12
[7] = IC50, nicotine stimulated Rb+ efflux
[8] = IC50, nicotine-stimulated 86Rb+ efflux, α3β4 nAChR
[9] = IC50 of Rb+ efflux, cell line KXα3β4R2
[10] = chromatographic (NLC), read-out: Koff
[11] = chromatographic (NLC), read-out: Kon
[12] = chromatographic (NLC), read-out: logKa (converted)
[13] = α3β4 nAChR, NLC, read-out: koff dissociation constant rate
[14] = α3β4 nAChR, NLC, read-out: kon association constant rate
[15] = α3β4 nAChR, NLC, read-out: log K chromatographic equilibrium constant (converted)
[16] = α3β4 nAChR, 10 μM, 20 μl injected, ammonium acetate 10 mM pH 7.4/methanol 85:15
[17] = nicotine-stimulated 86Rb+ efflux, cell line KXα3β4R2, read-out: IC50
[18] = IC50, nicotine-stimulated 86Rb+ efflux, cell line KXα3β4R2

T1 sequence (P04757 26-499): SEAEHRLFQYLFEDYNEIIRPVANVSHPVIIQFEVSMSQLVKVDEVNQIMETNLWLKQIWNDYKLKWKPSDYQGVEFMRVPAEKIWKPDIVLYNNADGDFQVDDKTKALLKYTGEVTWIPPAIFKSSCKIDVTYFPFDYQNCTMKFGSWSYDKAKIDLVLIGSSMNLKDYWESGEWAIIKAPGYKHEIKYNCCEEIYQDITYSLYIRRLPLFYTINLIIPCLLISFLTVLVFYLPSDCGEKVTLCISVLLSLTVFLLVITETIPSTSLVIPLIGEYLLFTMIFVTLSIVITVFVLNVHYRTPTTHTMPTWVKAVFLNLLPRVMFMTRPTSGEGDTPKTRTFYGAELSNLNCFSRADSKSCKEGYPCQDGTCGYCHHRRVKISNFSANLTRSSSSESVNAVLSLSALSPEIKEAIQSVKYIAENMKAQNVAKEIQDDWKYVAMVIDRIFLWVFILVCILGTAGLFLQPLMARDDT
T1 sequence (P12392 21-495): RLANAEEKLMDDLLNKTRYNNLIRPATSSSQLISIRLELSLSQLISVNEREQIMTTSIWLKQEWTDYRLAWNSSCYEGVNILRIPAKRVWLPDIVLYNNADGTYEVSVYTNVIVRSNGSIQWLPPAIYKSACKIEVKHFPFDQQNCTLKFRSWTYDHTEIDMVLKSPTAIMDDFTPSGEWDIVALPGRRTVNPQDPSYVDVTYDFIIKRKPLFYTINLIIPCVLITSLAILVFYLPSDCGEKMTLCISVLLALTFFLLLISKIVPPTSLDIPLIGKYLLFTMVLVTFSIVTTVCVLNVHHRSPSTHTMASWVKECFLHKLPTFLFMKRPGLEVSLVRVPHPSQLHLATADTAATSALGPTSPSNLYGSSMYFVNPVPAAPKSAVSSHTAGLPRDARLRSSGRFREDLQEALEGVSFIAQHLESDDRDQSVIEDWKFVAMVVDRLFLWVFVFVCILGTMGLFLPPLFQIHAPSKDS
Chain of K177 (α4β2) (P43681 27-627): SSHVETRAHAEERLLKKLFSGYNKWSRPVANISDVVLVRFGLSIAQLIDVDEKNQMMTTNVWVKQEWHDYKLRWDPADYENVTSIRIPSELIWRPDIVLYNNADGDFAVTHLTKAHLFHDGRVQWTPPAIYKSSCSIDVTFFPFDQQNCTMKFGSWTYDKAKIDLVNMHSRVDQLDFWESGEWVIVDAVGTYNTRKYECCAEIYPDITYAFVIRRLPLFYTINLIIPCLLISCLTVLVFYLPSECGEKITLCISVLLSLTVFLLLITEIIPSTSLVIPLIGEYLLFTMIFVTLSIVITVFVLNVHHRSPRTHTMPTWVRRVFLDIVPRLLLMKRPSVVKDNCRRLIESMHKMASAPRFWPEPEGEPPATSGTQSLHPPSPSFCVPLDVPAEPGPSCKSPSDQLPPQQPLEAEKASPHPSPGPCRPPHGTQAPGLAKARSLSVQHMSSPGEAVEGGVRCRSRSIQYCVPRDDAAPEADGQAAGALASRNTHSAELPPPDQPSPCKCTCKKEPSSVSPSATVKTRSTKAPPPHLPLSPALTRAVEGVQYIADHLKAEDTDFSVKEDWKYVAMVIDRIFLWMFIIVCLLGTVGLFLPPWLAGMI
Chain of K177 (α4β2) (P17787 26-502): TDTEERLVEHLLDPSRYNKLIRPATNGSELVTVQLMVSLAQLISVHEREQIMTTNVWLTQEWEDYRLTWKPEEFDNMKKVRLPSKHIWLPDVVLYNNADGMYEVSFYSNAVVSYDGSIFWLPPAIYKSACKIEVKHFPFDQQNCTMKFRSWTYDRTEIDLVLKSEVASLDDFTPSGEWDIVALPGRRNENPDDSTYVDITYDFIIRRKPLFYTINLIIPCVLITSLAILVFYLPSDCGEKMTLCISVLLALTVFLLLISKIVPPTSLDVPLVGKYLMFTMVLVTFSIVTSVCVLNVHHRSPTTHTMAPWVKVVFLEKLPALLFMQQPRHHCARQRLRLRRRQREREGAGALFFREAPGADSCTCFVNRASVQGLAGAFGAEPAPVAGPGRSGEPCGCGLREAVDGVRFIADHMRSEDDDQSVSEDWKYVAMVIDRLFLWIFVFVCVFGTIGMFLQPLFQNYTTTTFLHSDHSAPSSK

Row | Structure (SMILES) | koff [2, 13] [s⁻¹] | kon [2, 14] [M⁻¹ s⁻¹] | Kd [2, 15] [nM] | k′(NLC) retention capacity factor [2, 16] | also measured
1 | COc1ccc2c(c1)[C@]13CCCC[C@@H]1[C@H](C2)N(C)CC3 [dextromethorphan] | 1.01 | 2.37e+07 | 42.7 | 61.30 | IC50 [1, 7]: 10100 nM; IC50 [1, 8]: 10000 nM; IC50 [1, 9]: 10100 nM; difference in ΔG of the complexes ([2]; DM vs LM, chromatographic experiments): 0.3 kcal/mol; K′ [2]: 61.30 (±0.27); Ka ([2]; chromatographic (NLC)): 23.40 (±0.36) μM^−1; koff [2, 10]: 1.01 s⁻¹; kon [2, 11]: 2.37e+07 M⁻¹ s⁻¹; Kd [2, 12]: 42.7 nM; ΔG° [2]: −2.33 (±0.4) kcal mol^−1; ΔH° [2]: −6.92 (±0.19) kcal mol^−1; ΔS° [2]: −15.70 (±0.7) cal mol^−1T^−1
2 | COc1ccc([C@@H]2Sc3ccccc3N(CCN(C)C)C(=O)[C@@H]2OC(C)=O)cc1 [dilthiazem] |  |  |  | 43.53 | IC50 ([1]; cell line KXα3β4R2, read-out: IC50 of Rb+ efflux): 2260 nM; IC50 [1, 17]: 2200 nM; IC50 ([1]; nicotine-stimulated 86Rb+ efflux, α3β4 nAChR, read-out: IC50): 2300 nM; logk′ ([2]; α3β4 nAChR): 1.64; koff dissociation constant rate ([2]; α3β4 nAChR, NLC): 1.60 s⁻¹; log K chromatographic equilibrium constant ([2]; α3β4 nAChR, NLC): 7.22 M^−1
3 | CN[C@@H](C)Cc1ccccc1 [methamphetamine] | 6.81 | 2.91e+07 | 234 | 8.38 | 
4 | CC12CC3CC(C)(C1)CC(N)(C3)C2 [memantine] | 3.45 | 1.88e+07 | 182 | 16.71 | IC50 [3]: 6600 nM
5 | COc1ccc(CC2c3cc(OC)c(OC)cc3CCN2C)cc1OC (stereo not drawn) [laudanosine] | 2.18 | 2.5e+07 | 87.1 | 22.87 | 
6 | CNC1(C)C2CCC(C2)C1(C)C (stereo not drawn) [mecamylamine] |  |  |  |  | k′(NLC) retention capacity factor ([2]; pH 7.4): 10.89
7 | CC(NC(C)(C)C)C(=O)c1cccc(Cl)c1 (stereo not drawn) [bupropion] | 5.14 | 2.87e+07 | 178 | 12.97 | IC50 [4]: 1400 nM
8 | COc1ccc(CCNCCCC(C#N)(c2ccc(OC)c(OC)c2)C(C)C)cc1OC (single isomer, unassigned) [nor-verapamil-R, nor-verapamil] | 0.58 | 1.6e+07 | 36.3 | 97.99 | 
9 | CNCCCC(C#N)(c1ccc(OC)c(OC)c1)C(C)C [Compound D-617] |  |  |  | 22.22 | koff dissociation constant rate ([2]; α3β4 nAChR, NLC): 2.72 s⁻¹; log K chromatographic equilibrium constant ([2]; α3β4 nAChR, NLC): 6.74 M^−1
10 | CN1CCCC1c1cccnc1 (stereo not drawn) [nicotine] |  |  |  |  | maximum 86Rb+ efflux [5]: ~45 % of the amount loaded
11 | CN1CC[C@@]23CCCC[C@@H]2[C@@H]1Cc1ccc(O)cc13 [dextrorphan] | 2.3 | 2.07e+07 | 112 |  | 
12 | O=C(O)c1ccc([N+](=O)[O-])cc1[N+](=O)[O-] [dinitrobenzoic acid, 2,4-dinitrobenzoic acid] |  |  |  | 7.77 | Kd ([2]; log K chromatographic equilibrium constant, α3β4 nAChR, NLC): 1350 nM; koff dissociation constant rate ([2]; α3β4 nAChR, NLC): 12.12 s⁻¹
13 | CC[n+]1c(-c2ccccc2)c2cc(N)ccc2c2ccc(N)cc21 [ethidium] | 0.18 | 3.59e+07 | 5.01 | 191.82 | 
14 | c1ccc(C2(N3CCCCC3)CCCCC2)cc1 [phenylcyclidine] | 2.69 | 2.32e+07 | 115 | 24.06 | IC50 [4]: 5900 nM; IC50 [1, 9]: 7000 nM
15 | COc1ccc(C(=O)O)cc1OC [dimethoxybenzoic ac., 3,4-dimethoxybenzoic acid] | 18.2 | 9.8e+06 | 1860 | 4.46 | 
16 | C[C@]12N[C@H](Cc3ccccc31)c1ccccc12 [MK-801] | 3.48 | 2.71e+07 | 129 | 19.10 | 
17 | CNCCN1C(=O)[C@H](O)[C@H](c2ccc(O)cc2)Sc2ccccc21 [Compound M6] |  |  |  |  | IC50 [1, 17]: 63100 nM; logk′ ([2]; α3β4 nAChR): 1.48

Row | Structure (SMILES) | koff [2, 13] [s⁻¹] | kon [2, 14] [M⁻¹ s⁻¹] | Kd [2, 15] [nM] | k′(NLC) retention capacity factor [2, 16] | also measured
18 | CCCCC1C(=O)N(c2ccccc2)N(c2ccccc2)C1=O [phenylbutazone] | 22.2 | 8.7e+06 | 2570 |  | 
19 | COc1ccc2c(c1)[C@@]13CCCC[C@H]1[C@@H](C2)N(C)CC3 [levomethorphan] | 1.55 | 1.86e+07 | 83.2 | 35.81 | IC50 [1, 7]: 10900 nM; IC50 [1, 9]: 10900 nM; K′ [2]: 35.81 (±0.15); Ka ([2]; chromatographic (NLC)): 12.01 (±0.23) μM^−1; koff [2, 10]: 1.55 s⁻¹; kon [2, 11]: 1.86e+07 M⁻¹ s⁻¹; Kd [2, 12]: 83.2 nM; ΔG° [2]: −2.04 (±0.4) kcal mol^−1; ΔH° [2]: −6.59 (±0.18) kcal mol^−1; ΔS° [2]: −15.20 (0.6) cal mol^−1T^−1
20 | COc1ccc(CCNCCCC(C#N)(c2ccc(OC)c(OC)c2)C(C)C)cc1OC (single isomer, unassigned) [nor-verapamil-S, nor-verapamil] |  |  | 39.8 | 97.86 | koff dissociation constant rate ([2]; α3β4 nAChR, NLC): 0.61 s⁻¹
21 | COc1ccc2c(c1)[C@@]13CCCC[C@H]1[C@@H](C2)NCC3 [3 MM] |  |  |  | 56.47 | koff dissociation constant rate ([2]; α3β4 nAChR, NLC): 1.00 s⁻¹; log K chromatographic equilibrium constant ([2]; α3β4 nAChR, NLC): 7.28 M^−1
22 | COc1ccc(CCN(C)CCCC(C#N)(c2cc(OC)c(OC)c(OC)c2)C(C)C)cc1OC (stereo not drawn) [galapamil] |  |  |  | 75.93 | IC50 [1, 17]: 6400 nM; logk′ ([2]; α3β4 nAChR): 1.88; koff dissociation constant rate ([2]; α3β4 nAChR, NLC): 0.74 s⁻¹; log K chromatographic equilibrium constant ([2]; α3β4 nAChR, NLC): 7.43 M^−1
23 | COc1ccc(C(C#N)(CCCN)C(C)C)cc1OC [Compound D-620] |  |  |  | 17.72 | IC50 [1, 17]: 48900 nM; logk′ ([2]; α3β4 nAChR): 1.25; koff dissociation constant rate ([2]; α3β4 nAChR, NLC): 3.43 s⁻¹; log K chromatographic equilibrium constant ([2]; α3β4 nAChR, NLC): 6.53 M^−1
24 | CC(=O)Nc1ccc(O)cc1 [acetaminophen] | 17.2 | 8.4e+06 | 2040 | 5.30 | 
25 | CNC1(c2ccccc2Cl)CCCCC1=O (stereo not drawn) [ketamine] | 8.5 | 3.84e+07 | 224 | 8.25 | IC50 [4]: 1400 nM; IC50 [6]: 5200 nM
26 | CNCCN1C(=O)[C@H](OC(C)=O)[C@H](c2ccc(OC)cc2)Sc2ccccc21 [MA] |  |  |  |  | IC50 [1, 17]: 4200 nM; logk′ ([2]; α3β4 nAChR): 1.61
27 | CCC(=O)C(CC(C)N(C)C)(c1ccccc1)c1ccccc1 (stereo not drawn) [methadone] | 1.37 | 1.59e+07 | 87.1 | 44.45 | IC50 [1, 9]: 1900 nM
28 | NC12CC3CC(CC(C3)C1)C2 [amantadine] | 6.73 | 3.08e+07 | 219 | 8.98 | 
29 | CCOC(=O)C1=C(COCCN)NC(C)=C(C(=O)OC)C1c1ccccc1Cl (stereo not drawn) [amlodipine] |  |  |  |  | IC50 [1, 18]: 5800 nM
30 | COC(=O)C1=C(C)NC(C)=C(C(=O)OCCN(C)Cc2ccccc2)C1c1cccc([N+](=O)[O-])c1 (stereo not drawn) [nicardapine] |  |  |  |  | IC50 [1, 17]: 2500 nM; logk′ ([2]; α3β4 nAChR): 2.33
31 | CC(=O)Nc1ccccc1 [acetanilide] | 25.5 | 8.2e+06 | 3090 | 5.95 | 
32 | COc1ccc(CCNCCCC(C#N)(c2ccc(OC)c(OC)c2)C(C)C)cc1OC (stereo not drawn) [nor-verapamil] |  |  |  |  | IC50 [1, 18]: 2600 nM; IC50 [1, 8]: 2100 nM; IC50 [1, 9]: 2600 nM; enantioselectivity of binding towards nicotinic affinity column ([2]; chromatographic experiments and NLC data): did not exhibit noticeable differences between enantiomers; logk′ ([2]; α3β4 nAChR): 1.99
33 | CN(C)CCN1C(=O)[C@H](O)[C@H](c2ccc(O)cc2)Sc2ccccc21 [Compound M4] |  |  |  |  | IC50 [1, 17]: 73200 nM; logk′ ([2]; α3β4 nAChR): 1.45
